From PubChem BioAssay (NCI)
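Protocol summary: plate cells (96-well), add compound at 5 concentrations, incubate 48 h, interpolate endpoints linearly. At the TGI there is no net growth.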

Tests used:
Experiment in all cases: growth of human tumour cells (NCI), 48 h
[1] = system: OVCAR-5 ovarian
[2] = system: RXF 393 renal
[3] = system: U251 CNS
[4] = system: 786-0 renal
[5] = system: COLO 205 colon
[6] = system: HCT-15 colon
[7] = system: UACC-257 melanoma
[8] = system: NCI-H23 lung
[9] = system: SF-539 CNS
[10] = system: PC-3 prostate
[11] = system: MALME-3M melanoma
[12] = system: HCC-2998 colon
[13] = system: NCI/ADR-RES ovarian
[14] = system: ACHN renal
[15] = system: CAKI-1 renal
[16] = system: HCT-116 colon
[17] = system: IGROV1 ovarian
[18] = system: RPMI-8226 leukemia
[19] = system: SK-MEL-28 melanoma
[20] = system: DU-145 prostate
[21] = system: K-562 leukemia
[22] = system: SNB-19 CNS
[23] = system: OVCAR-3 ovarian
[24] = system: NCI-H226 lung
[25] = system: MDA-N
[26] = system: SK-OV-3 ovarian
[27] = system: SN12C renal
[28] = system: MCF7 breast
[29] = system: HOP-92 NSCLC
[30] = system: MDA-MB-435
[31] = system: TK-10 renal
[32] = system: UACC-62 melanoma
[33] = system: UO-31 renal
[34] = system: SW-620 colon
[35] = system: MDA-MB-231 breast
[36] = system: HT29 colon
[37] = system: HOP-62 NSCLC
[38] = system: M14 melanoma
[39] = system: T-47D breast
[40] = system: NCI-H460 lung
[41] = system: MOLT-4 leukemia
[42] = system: CCRF-CEM leukemia
[43] = system: HS 578T breast
[44] = system: SF-268 CNS
[45] = system: NCI-H522 lung
[46] = system: SK-MEL-2 melanoma
[47] = system: SNB-75 CNS
[48] = system: A549 NSCLC
[49] = system: SR leukemia
[50] = system: OVCAR-4 ovarian
[51] = system: SF-295 CNS
[52] = system: SK-MEL-5 melanoma
[53] = system: KM12 colon
[54] = system: BT-549 breast
[55] = system: OVCAR-8 ovarian
[56] = system: A498 renal
[57] = system: KM20L2 colon
[58] = system: HL-60(TB) leukemia
[59] = system: SNB-78 CNS
[60] = system: LXFL 529 NSCLC
[61] = system: LOX IMVI melanoma
[62] = system: M19-MEL melanoma
[63] = system: DLD-1 colon
[64] = system: EKVX NSCLC

## O=C(NNC(=S)Nc1ccc(Cl)cc1)c1cc(-c2ccccc2)nc2ccccc12
[1]
  TGI: 24.4 µM
[2]
  TGI: 21.9 µM
[3]
  TGI: 16.1 µM
[4]
  TGI: 17.6 µM
[5]
  TGI: 18.2 µM
[6]
  TGI: 14.9 µM
[7]
  TGI: 19.5 µM
[8]
  TGI: 17.2 µM
[9]
  TGI: 11.6 µM
[10]
  TGI: 15.1 µM
[11]
  TGI: 17.5 µM
[12]
  TGI: 11.5 µM
[13]
  TGI: 30.7 µM
[14]
  TGI: 22.7 µM
[15]
  TGI: 20.6 µM
[16]
  TGI: 13.5 µM
[17]
  TGI: 26.7 µM
[18]
  TGI: 48 µM
[19]
  TGI: 14.1 µM
[20]
  TGI: 16.5 µM
[21]
  TGI: 93.1 µM
[22]
  TGI: 21.7 µM
[23]
  TGI: 8.91 µM
[24]
  TGI: 28.9 µM
[25]
  TGI: 6.5 µM
[26]
  TGI: 19.8 µM
[27]
  TGI: 21.4 µM
[28]
  TGI: 17.3 µM
[29]
  TGI: 13.6 µM
[30]
  TGI: 11.4 µM
[31]
  TGI: 21.7 µM
[32]
  TGI: 12.6 µM
[33]
  TGI: 18.1 µM
[34]
  TGI: 18.4 µM
[35]
  TGI: 29.4 µM
[36]
  TGI: 34.9 µM
[37]
  TGI: 19.6 µM
[38]
  TGI: 18.7 µM
[39]
  TGI: 11.6 µM
[40]
  TGI: 25.6 µM
[41]
  TGI: 27.7 µM
[42]
  TGI: 6.91 µM
[43]
  TGI: 32.4 µM
[44]
  TGI: 29.6 µM
[45]
  TGI: 23.2 µM
[46]
  TGI: 9.89 µM
[47]
  TGI: 39.8 µM
[48]
  TGI: 21.3 µM
[49]
  TGI: 4.72 µM
[50]
  TGI: 24.3 µM
[51]
  TGI: 9.22 µM
[52]
  TGI: 16.4 µM
[53]
  TGI: 22.5 µM
[54]
  TGI: 19.2 µM
[55]
  TGI: 29.1 µM

## CC1=C(C(=O)Nc2ccc([N+](=O)[O-])cc2)C(c2ccc(N(C)C)cc2)C(C(=O)Nc2ccc([N+](=O)[O-])cc2)=C(C)N1
[56]
  TGI: 81.8 µM
[1]
  TGI: 67 µM
[2]
  TGI: 30.9 µM
[3]
  TGI: 66.5 µM
[4]
  TGI: 57.6 µM
[57]
  TGI: 43.4 µM
[5]
  TGI: 33.7 µM
[7]
  TGI: 35.6 µM
[8]
  TGI: 52.8 µM
[9]
  TGI: 50.5 µM
[11]
  TGI: 52.6 µM
[12]
  TGI: 25.8 µM
[14]
  TGI: 43.6 µM
[15]
  TGI: 89.5 µM
[58]
  TGI: 38.7 µM
[17]
  TGI: 61.9 µM
[18]
  TGI: 43.2 µM
[19]
  TGI: 28.2 µM
[21]
  TGI: 37.6 µM
[59]
  TGI: > 100 µM
[22]
  TGI: > 100 µM
[23]
  TGI: 34.5 µM
[24]
  TGI: 42.3 µM
[26]
  TGI: 80 µM
[29]
  TGI: 47.7 µM
[31]
  TGI: 92.2 µM
[60]
  TGI: 71.4 µM
[33]
  TGI: > 100 µM
[34]
  TGI: 69.8 µM
[36]
  TGI: 46.9 µM
[37]
  TGI: 27.5 µM
[61]
  TGI: 23.5 µM
[38]
  TGI: 40.9 µM
[40]
  TGI: 45.3 µM
[62]
  TGI: 33.2 µM
[41]
  TGI: 42.3 µM
[42]
  TGI: 60.7 µM
[44]
  TGI: 96.1 µM
[45]
  TGI: 25.6 µM
[46]
  TGI: 29.8 µM
[47]
  TGI: 59.6 µM
[48]
  TGI: > 100 µM
[50]
  TGI: 89.5 µM
[51]
  TGI: 74.6 µM
[63]
  TGI: 30 µM
[52]
  TGI: 32.1 µM
[64]
  TGI: 90.4 µM
[53]
  TGI: 37 µM
[55]
  TGI: 97.9 µM
